According to article PMC7470779 (Acta Pharmacologica Sinica, 2019):
Blank lines part the entries; values can stand above or below the compound they belong to.

Assays:
[1] = molecular target: T1, human OAT1 (Homo sapiens, UniProt Q4U2R8); experiment: Inhibition of 6-CF uptake in hOAT1-HEK293 cells; type: cell-based
T1 sequence (Q4U2R8 1-550 isoform Q4U2R8-2): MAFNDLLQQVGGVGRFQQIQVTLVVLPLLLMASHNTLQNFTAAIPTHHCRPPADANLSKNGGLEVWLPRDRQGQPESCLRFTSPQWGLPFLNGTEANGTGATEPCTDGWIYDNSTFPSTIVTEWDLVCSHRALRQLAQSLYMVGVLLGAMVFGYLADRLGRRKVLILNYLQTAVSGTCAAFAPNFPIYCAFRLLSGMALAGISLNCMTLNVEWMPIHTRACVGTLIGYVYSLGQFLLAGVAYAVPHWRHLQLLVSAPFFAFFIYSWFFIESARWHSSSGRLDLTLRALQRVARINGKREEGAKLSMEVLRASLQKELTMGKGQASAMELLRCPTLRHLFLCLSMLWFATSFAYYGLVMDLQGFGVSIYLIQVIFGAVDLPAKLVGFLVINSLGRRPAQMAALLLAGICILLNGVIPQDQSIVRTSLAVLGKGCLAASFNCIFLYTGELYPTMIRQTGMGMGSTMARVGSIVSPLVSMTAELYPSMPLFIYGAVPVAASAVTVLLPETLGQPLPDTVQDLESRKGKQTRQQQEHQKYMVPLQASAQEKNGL

[2] = molecular target: T2, human OAT3 (Homo sapiens, UniProt Q8TCC7); experiment: Inhibition of 6-CF uptake in hOAT3-HEK293 cells; type: cell-based
T2 sequence (Q8TCC7 1-542): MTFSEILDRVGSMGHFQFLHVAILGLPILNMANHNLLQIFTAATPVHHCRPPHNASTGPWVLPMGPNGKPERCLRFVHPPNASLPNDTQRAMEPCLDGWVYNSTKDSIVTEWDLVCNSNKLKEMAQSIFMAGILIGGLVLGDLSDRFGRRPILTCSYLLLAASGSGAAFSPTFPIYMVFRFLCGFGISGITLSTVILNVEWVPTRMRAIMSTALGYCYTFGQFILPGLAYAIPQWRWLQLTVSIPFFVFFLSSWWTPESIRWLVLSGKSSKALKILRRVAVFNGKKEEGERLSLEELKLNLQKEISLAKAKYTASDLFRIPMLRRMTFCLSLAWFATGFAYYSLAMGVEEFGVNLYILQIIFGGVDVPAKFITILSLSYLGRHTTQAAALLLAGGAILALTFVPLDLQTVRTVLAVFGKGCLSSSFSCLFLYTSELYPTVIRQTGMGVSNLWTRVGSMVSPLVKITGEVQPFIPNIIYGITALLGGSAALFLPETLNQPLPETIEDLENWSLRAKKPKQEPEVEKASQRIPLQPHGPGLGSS

[3] = molecular target: T1, human OAT1; experiment: Acyclovir uptake in hOAT1-HEK293 cells; type: cell-based
[4] = molecular target: T2, human OAT3; experiment: Acyclovir uptake in hOAT3-HEK293 cells; type: cell-based
[5] = molecular target: T3, human transporter MRP2 (Homo sapiens, UniProt Q92887); experiment: Transcellular transport of acyclovir in MRP2-MDCK cells; type: in vitro ADME; settings: acyclovir 10 μmol/L, TER 10 μmol/L, MK571 20 μmol/L
[6] = molecular target: T3, human transporter MRP2; experiment: Accumulation of acyclovir in MRP2-MDCK cells; type: cell-based
[7] = molecular target: T1, human OAT1; experiment: TER cellular uptake in hOAT1-HEK293 cells; type: in vitro ADME; settings: TER 20 μmol/L, 20 min, with or without probenecid 200 μmol/L
[8] = molecular target: T2, human OAT3; experiment: TER cellular uptake in hOAT3-HEK293 cells; type: in vitro ADME; settings: TER 20 μmol/L, 20 min, with or without probenecid 200 μmol/L
[9] = cited from earlier work
[10] = in vivo; settings: Sprague-Dawley, rat, iv, 30 mg/kg, AUC0-∞
[11] = Cumulative urinary excretion of acyclovir in rats; settings: acyclovir alone 30 mg/kg iv
[12] = Sprague-Dawley, rat, plasma, intraperitoneal

inhibitory effect on OAT1 (6-CF uptake) ([1]; hOAT1-HEK293 cells, LEF 1–100 μmol/L): no significant inhibitory effect
IC50 [2]: 4.1 µM
effect on OAT3-mediated acyclovir transport (uptake) [4]: inhibited
Compound: Cc1oncc1C(=O)Nc1ccc(C(F)(F)F)cc1 [LEF, leflunomide]
effect on OAT1-mediated acyclovir transport (uptake) [3]: only inhibited OAT3-mediated acyclovir transport

ER value of acyclovir reduced to, in the presence of inhibitor [5]: 1.46
effect on the plasma concentration and plasma clearance of acyclovir (rats, coadministration): no effect
Compound: CN(C)C(=O)CCSC(SCCC(=O)O)c1cccc(/C=C/c2ccc3ccc(Cl)cc3n2)c1 (centres unmarked) [MK571]

IC50 [6]: 4.91 µM
ER value of acyclovir reduced to, in the presence of inhibitor [5]: 1.46
IC50 [1]: 3.39 µM
IC50 [2]: 0.87 µM
effect on OAT1-mediated acyclovir transport (uptake) [3]: significantly inhibited
effect on OAT3-mediated acyclovir transport (uptake) [4]: significantly inhibited
substrate of OAT1 [7]: not a substrate
substrate of OAT3 [8]: not a substrate
mean plasma concentration of TER [12]: 25900 to 37800 ng/mL
time at which peak plasma concentration of TER was reached [12]: 2 h
Compound: C/C(O)=C(\C#N)C(=O)Nc1ccc(C(F)(F)F)cc1 [TER, teriflunomide]
half-life of TER in the plasma [9]: approximately two weeks

AUC(0-inf) [10]: 30600 ± 4530 ng·h/mL
AUC(0-inf) ([10]; rats, acyclovir 30 mg/kg iv, acyclovir alone): 25800 ± 3020 ng·h/mL
24-h cumulative urinary excretion of acyclovir (% of the dose recovered) [11]: 78.4%
Compound: Nc1nc2c(ncn2COCCO)c(=O)[nH]1 [acyclovir]
